Series [1] in a line: Solubility in water. The series is classed as physicochemical. The settings on record: corresponds to 0.019 mg/ml.
Series [2] can be described thus: Particle size distribution analysis by laser diffraction (Sympatec HELOS H3973). The series is classed as physicochemical. As to conditions: micronized particles. How it is done:
For particle size distribution analysis, the non-active silica particles (which were used in silica hydrogel composite #29HG) were dispersed in ethanol, and the analysis was conducted using a Sympatec HELOS H3973 laser diffraction instrument. The particle size distribution for non-active silica particles is shown in Table 2 (D10, D50 and D90 means that 10%, 50%, and 90% of the particles are equal or smaller than the indicated size)
The particles size distribution analysis for micronized (described in Example 1) Anagrelide HCl particles was also conducted using a Sympatec HELOS H3973 laser diffraction instrument. The particle size was mainly between 1 and 200 micrometers, where D10 was 16.6 micrometers, D50 80.4 micrometers, and D90 155 micrometers.

Series [3] is described as follows: In vivo pharmacokinetic experiment, oral and subcutaneous administration. Further details: species or system male SD (Sprague Dawley) rats. The settings on record: for AUC(0-t) / Cmax / Tmax / half-life: male, Sprague-Dawley, rat, plasma. How it is done: Silica hydrogel composite #29HG was used as a depot for male SD (Sprague Dawley) rats (5 animals/dosing group) in subcutaneous (SC+a letter A-E referring to different groups) administration of Anagrelide, and for oral administration (PO). The oral dose was prepared by adding 18.00 mg of Anagrelide hydrochloride into […] of 10 w-% ethanol with vortexing and sonication to obtain a suspension with concentration of 0.5 mg/ml of Anagrelide hydrochloride. The oral dose (5 mg/kg) was provided only in 12 h study, and it was freshly made just prior to dosing. Both 12 hour and 10 d pharmacokinetic experiments were conducted for the silica hydrogel composite for 2 different anagrelide hydrochloride doses (17.5 mg/kg and 35 mg/kg), and 28 d experiment only for the dose of 35 mg/kg.
The bioanalysis was conducted by using LC-MS/MS. The desired serial concentrations of working solutions were achieved by diluting stock solution of analyte with 50% acetonitrile in water solution. 5 μL of working solutions (2, 5, 10, 20, 50, 100, 500, 1000, 5000, 10000 ng/mL) were added to 50 μL of the male blank SD Rat plasma to achieve calibration standards of 0.2-1000 ng/mL (0.2, 0.5, 1, 2, 5, 10, 50, 100, 500, 1000 ng/mL) in a total volume of 55 μL. Four quality control samples at 0.5 ng/mL, 1 ng/mL, 50 ng/mL and 800 ng/mL for plasma were prepared independently of those used for the calibration curves. These QC samples were prepared on the day of analysis in the same way as calibration standards. 55 μL of standards, 55 μL of QC samples and 55 μL of unknown samples (50 μL of plasma with 5 μL of blank solution) were added to 200 μL of acetonitrile containing IS mixture for precipitating protein respectively. Then the samples were vortexed for 30 s. After centrifugation at 4 degree Celsius, 4700 rpm for 15 min, the supernatant was diluted 3 times with water, and 10 μL of diluted supernatant was injected into the LC-MS/MS system for quantitative analysis. The mean plasma concentrations of Anagrelide Hydrochloride for 12 h experiment are shown in FIG. 4, and corresponding results for 10 d experiment in FIG. 5, and for 28 d experiment in FIG. 6.

For series [4] the following is noted: cited from earlier work.
Where [5] appears, read: po, 5 mg/kg, oral suspension 5 mg/kg, 12 h experiment.
The mark [6] stands for this setting: sc, 17.5 mg/kg, SCA, subcutaneous silica hydrogel composite #29HG depot 17.5 mg/kg, 12 h experiment.
Where [7] appears, read: sc, 17.5 mg/kg, SCB, subcutaneous silica hydrogel composite #29HG depot 17.5 mg/kg, 10 d experiment.
Where [8] appears, read: sc, 35 mg/kg, SCC, subcutaneous silica hydrogel composite #29HG depot 35 mg/kg, 12 h experiment.
Setting [9] is: sc, 35 mg/kg, SCD, subcutaneous silica hydrogel composite #29HG depot 35 mg/kg, 10 d experiment.
Setting [10] is: sc, 35 mg/kg, SCE, subcutaneous silica hydrogel composite #29HG depot 35 mg/kg, 28 d experiment.

The values below come from patent publication US20230248647A1, “SILICA HYDROGEL COMPOSITE AND ITS USE” (DelSiTech Oy, priority 2020, published 2023).

Where a name gives a salt, the structure may show the parent alone.

Consider `O=C1CN2Cc3c(ccc(Cl)c3Cl)N=C2N1` [Anagrelide HCl, Anagrelide hydrochloride], for which the “solubility in water as weight-%” value in series [1] was 0.0019 weight-%. In series [2], the D10 worked out at 16.6 micrometers. For the same molecule, the D50 in series [2] is recorded as 80.4 micrometers. For the same molecule, the D90 in series [2] is 155 micrometers. In addition, the AUClast/D stood at 64 ± 47 ng·h/mL per mg/kg in series [3] (PO, oral suspension 5 mg/kg, 12 h experiment); 1.67 ± 0.4 ng·h/mL per mg/kg in series [3] (SCA, subcutaneous silica hydrogel composite #29HG depot 17.5 mg/kg, 12 h experiment); 29.8 ± 12.5 ng·h/mL per mg/kg in series [3] (SCB, subcutaneous silica hydrogel composite #29HG depot 17.5 mg/kg, 10 d experiment); 0.99 ± 0.3 ng·h/mL per mg/kg in series [3] (SCC, subcutaneous silica hydrogel composite #29HG depot 35 mg/kg, 12 h experiment); 21.4 ± 9.1 ng·h/mL per mg/kg in series [3] (SCD, subcutaneous silica hydrogel composite #29HG depot 35 mg/kg, 10 d experiment). In series [3] (SD rats, entire experiment (PO 5 mg/kg; SC #29HG depot 17.5 and 35 mg/kg)), the clinical symptoms entry was “No abnormal clinical symptoms were observed”. In series [3] (delivered as solid particles in silica hydrogel composite, SC, SD rats), the “release behaviour from plasma concentration results” value is “sustained and controlled release is achieved”. The AUC(0-t) is 320 ± 235 ng·h/mL in series [3] (setting [5]); 29.2 ± 7.1 ng·h/mL in series [3] (setting [6]); 521 ± 218 ng·h/mL in series [3] (setting [7]); 34.5 ± 10.6 ng·h/mL in series [3] (setting [8]); 749 ± 320 ng·h/mL in series [3] (setting [9]); 1600 ng·h/mL in series [3] (setting [10]). The Cmax in series [3] (setting [5]) came out at 62 ± 47 ng/mL; in series [3] (setting [6]), 4.55 ± 1.41 ng/mL; in series [3] (setting [7]) it was 3.58 ± 1.51 ng/mL; in series [3] (setting [8]) it was 6.3 ± 4.2 ng/mL; in series [3] (setting [9]), 5.29 ± 2.28 ng/mL. For the same molecule, the Tmax came out at 3 ± 2 h in series [3] (setting [5]); 1.1 ± 0.55 h in series [3] (setting [6]); 96 ± 102 h in series [3] (setting [7]); 0.8 ± 0.27 h in series [3] (setting [8]); 154 ± 79 h in series [3] (setting [9]); 188 h in series [3] (setting [10]). Also, the half-life was 1.3 ± 0.27 h in series [3] (setting [5]), 4.92 ± 0.85 h in series [3] (setting [6]), 7.03 ± 1.04 h in series [3] (setting [8]) and 167 h in series [3] (setting [10]). Moreover, the solubility in water in series [4] is 19 µg/mL.

As to `O=C1CN2Cc3c(ccc(Cl)c3Cl)N=C2N1` [Anagrelide], the “solubility of base form compared with Anagrelide HCl” value in series [4] (water) is reported as “even lower solubility than Anagrelide HCl”.
